Assay results published in patent US20180320177A1, “COMPOSITIONS AND METHODS FOR THE TREATMENT OF LIVER FIBROSIS” (UNIVERSITY OF CONNECTICUT, priority 2015, published 2018).

Key:
Smad signaling = Smad signaling in LX2 cells (Western blot); type: cell-based, human; details: LX2 cells (FIG. 5C)
Protocol: Western Blotting: Total protein lysates were prepared from livers and cells in lysis buffer containing 50 mM Tris, pH 8.0, 1% Nonidet™ P-40, 150 mM NaCl, 0.5% sodium deoxycholate, 0.1% SDS with protease inhibitors (Thermo Fisher Scientific) and subjected to immunoblotting. Nuclear and cytoplasmic subcellular fractions were prepared using NE-PER nuclear and cytoplasmic extraction reagents (Pierce) according to the manufacturer's instructions. The blot was incubated with a primary antibody, followed by a secondary antibody conjugated to horseradish peroxidase. ECL kit (Pierce) was used to detect the reactivity. The following antibodies were obtained from Cell Signaling Technology: HMGB2, HMGB1, AKT, p-AKT, mTOR, p-mTOR, ERK1/2, pERK1/2, Raptor, Rictor, p53, p21, p-Bad, Smad4, p-Smad2/3, Lamin A/C, a-SMA, MMP2, MMP9, TIMP1, RhoA, Rho-GTP, Cdc42, Rac1/2/3. Anti-HA antibody and anti-beta actin antibody were purchased from Sigma and Santa Cruz Biotechnology, respectively.
Cell Lines The LX-2 human stellate cell line was maintained in Dulbecco's Modified Eagle's Medium (DMEM) supplemented with 2% fetal bovine serum (FBS), 100 IU/ml penicillin, and 100 μg/ml streptomycin. Human hepatocellular carcinoma (HCC) MHCC97H cells were maintained in DMEM supplemented with 10% FBS, 100 IU/ml penicillin, and 100 μg/ml streptomycin, 1 mM HEPES, 1 mM sodium pyruvate, 2 mM L-glutamine. […]

TIC cells [1] = experiment: TIC cell proliferation (micrograph); type: cell-based; details: 5 μM ICM versus DMSO (FIG. 14E)
Protocol: Cell culture, Cell transfection:HEK293T, Hela, Hep3B and MHCC97H cells were cultured and transfected using X-tremeGENE™ HP DNA transfection reagent (Roche) as described previously. CGR8 ES cells were cultured on 0.1% gelatin coated tissue-culture dish in knockout DMEM medium containing 15% ES qualified-Fetal Bovine Serum, 2 mM L-glutamin, 0.1 mM NEAA, 0.1 mM β-mercaptoethanol, 50 μg/ml penicillin-streptomycin and 10 ng/ml Leukemia inhibitory factor (LIF). TIC cells were cultured in DMEM-F12 medium containing Embryomax nucleotides, 2 mM L-glutamin, 0.1 mM NEAA, 20 ng/ml mouse EGF, 50 μg/ml penicillin-streptomycin and […].
FIG. 14A is Left, Western blot of HMGB2 and SOX2 protein in HEK293T cells transfected with 0.5 μg […] expression plasmid and 0, 1 or 2 μg Flag-HMGB2 expression plasmid. Right, Western blot of HMGB2 and OCT4 protein in HEK293T cells transfected with 0.5 μg HA-OCT4 expression plasmid and 0, 1 or 2 μg Flag-HMGB2 expression plasmid. […] CGR8 cells were lysed, co-immunoprecipitated with OCT4 antibody, followed by Western blot with HMGB2 or OCT4 antibodies. FIG. 14 C is a luciferase reporter assay. HepG2 cells were infected with AAV8-GFP or AAV8-HMGB2 24 hrs before being transfected with 6*OS luciferase reporter and OCT4, SOX2 expression plasmids alone or in combination.

TIC cells [2] = experiment: TIC cell spheroid assay; type: cell-based; details: TIC cells with stable HMGB2 knockdown (FIG. 7F)
Protocol: TIC cells were trypsinized into single cells and 1000 cells were suspended in serum free TIC medium with 1% methylcellulose supplemented with B27, 20 ng/ml EGF and 20 ng/ml FGF in each well of 96-well ultralow attachment plate.

Row | Compound | Smad signaling (Smad signaling) | TIC cell proliferation (TIC cells [1]) | spheroid size (TIC cells [2])
1 | CC1(C)Oc2cc(O)ccc2C2C1=CCn1c(=O)n(-c3ccccc3)c(=O)n12 (stereo not drawn) [ICM, inflachromene] | decreases Smad signaling | decreases TIC cell proliferation | 
2 | shHMGB2: small hairpin RNA against HMGB2 (SEQ ID NO: 8), delivered by AAV or lentivirus (CCGGGCTCAACATTAGCTTCAGTATCTCGAGATACTGAAGCTAATGTTGAGCTTTTTG) |  |  | decreased spheroid size
